Patent publication US10829481B2, “Benzimidazole derivatives as modulators of ROR-gamma” (Vitae Pharmaceuticals, LLC, priority 2016, dated 2020)

Columns and labels:
[1] = target: recombinant RORγ Ligand Binding Domain (LBD) protein (Homo sapiens (Human), UniProt P51449); assay: Radio-Ligand RORγ Binding Assay (Assay 1); conditions: competition with 25-hydroxy [26,27-3H]-cholesterol, SPA
Experimental: Radio-Ligand RORγ Binding Assay (Assay 1)
Compounds described herein were tested for ability to bind to RORγ in a cell-free competition assay with commercially available radio-ligand (RL), 25-hydroxy [26,27-^3H]-cholesterol (PerkinElmer, Cat. #NET674250UC), for a ligand binding site on a recombinant RORγ Ligand Binding Domain (LBD) protein expressed as a 6×His-Glutathione-S-Transferase (GST) fusion. The assay was performed in 96-well SPA plates (PerkinElmer, Cat. #1450-401) in 50 mM HEPES buffer, pH 7.4, containing 150 mM NaCl, 5 mM MgCl2, 10% (v/v) glycerol, 2 mM CHAPS, 0.5 mM β-octylglucopyranoside and 5 mM DTT. Tested compounds were dissolved in DMSO, and semi-log (3.162×) serial dilutions of the compounds were prepared in the same solvent. Two μL of the DMSO solutions were mixed with 28 μL of 8.6 nM 25-hydroxy [26,27-^3H]-cholesterol and 50 μL of 24 nM RORγ LBD. The plate was shaken at 700 rpm for 20 min and incubated for 10 min at rt, after which 40 μL of poly-Lys YSi SPA beads (PerkinElmer, Cat. #RPNQ0010) were added to achieve […] of the beads per well. The plate was incubated on an orbital shaker for 20 min and then for 10 min without agitation at rt. SPA signal for tritium beta radiation was registered on PerkinElmer Microbeta plate reader. […] The percent inhibition vs. concentration data were fit into a four-parameter model, and IC50 values were calculated from the fit as the concentrations corresponding to the inflection points on the dose-response curves. Inhibitory constants (Ki) were calculated using the following equation, where [RL] is the concentration in the assay and KD is a dissociation constant of 25-hydroxy [26,27-^3H]-cholesterol: […]

[2] = target: full-length RORγt in Jurkat cells (Homo sapiens (Human), UniProt P51449); assay: RORγt 5×RORE Assay in Jurkat Cells (Assay 2); format: cell-based; conditions: 5×RORE Nanoluc luciferase reporter
full-length RORγt in Jurkat cells, sequence (P51449 other isoform, or with tags, fused parts or gaps): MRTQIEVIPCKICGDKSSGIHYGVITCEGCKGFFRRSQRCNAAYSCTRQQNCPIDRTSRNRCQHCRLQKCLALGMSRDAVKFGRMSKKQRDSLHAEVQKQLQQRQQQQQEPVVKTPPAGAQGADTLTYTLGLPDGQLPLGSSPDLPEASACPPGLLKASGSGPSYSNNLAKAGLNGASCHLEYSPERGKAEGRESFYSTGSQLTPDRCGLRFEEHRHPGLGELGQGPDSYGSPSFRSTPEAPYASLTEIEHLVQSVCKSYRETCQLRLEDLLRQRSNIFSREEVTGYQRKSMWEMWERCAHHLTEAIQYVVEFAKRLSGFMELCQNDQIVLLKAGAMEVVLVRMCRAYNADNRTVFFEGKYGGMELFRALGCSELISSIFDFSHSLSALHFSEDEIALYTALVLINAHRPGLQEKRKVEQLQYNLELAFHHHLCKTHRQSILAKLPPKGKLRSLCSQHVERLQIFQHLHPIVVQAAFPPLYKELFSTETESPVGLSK
Experimental: RORγt 5×RORE Assay in Jurkat Cells (Assay 2)
Compounds described herein were tested for RORγ inverse agonist activity in a cell-based, transcriptional activity assay. Secreted Nanoluc® luciferase was used as a reporter for transcriptional activity of the full-length RORγt in Jurkat cells (ATCC, Cat. #TIB-152). […] (Promega, Cat. #N1021) using KpnI and HindIII restriction sites. […] After 5-6 hrs of incubation at 37° C./5% CO2, the cells were collected, resuspended in phenol-red free RPMI media containing 10% (v/v) delipidated FBS (Hyclone, Cat. #SH30855.03) and dispensed into 96-well clear bottom tissue culture plates (CoStar, Cat. #3603), at 80,000 cells per well. Tested compounds were added to the cells in the same media (final concentration of DMSO was 0.1% (v/v)), and the plates were incubated at 37° C./5% CO2 for 16-18 hrs. Luciferase activity in the conditioned supernatants was determined with NanoGlo® assay reagents (Promega, Cat. #N1130).

recombinant RORγ Ligand Binding Domain (LBD) protein, sequence (P51449 269-508): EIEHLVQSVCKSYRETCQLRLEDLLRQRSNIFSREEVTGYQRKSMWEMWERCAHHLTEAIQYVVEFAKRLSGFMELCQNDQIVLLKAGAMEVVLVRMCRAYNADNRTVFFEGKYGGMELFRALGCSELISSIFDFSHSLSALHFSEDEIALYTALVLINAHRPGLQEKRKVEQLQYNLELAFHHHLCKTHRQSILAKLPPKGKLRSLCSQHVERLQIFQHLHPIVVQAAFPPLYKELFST

CCc1nc2cc(C(=O)N[C@@H](CO)c3ccc(S(=O)(=O)CC)cc3)ccc2n1Cc1cccc2c1OC(F)(F)O2 [I-16, (R)-1-((2,2-difluorobenzo[d][1,3]dioxol-4-yl)methyl)-2-ethyl-N-(1-(4-(ethylsulfonyl)phenyl)-2-hydroxyethyl)-1H-benzo[d]imidazole-5-carboxamide]
Ki [1]: < 100 nM
IC50 [2]: < 100 nM

CCS(=O)(=O)c1ccc([C@H](CO)NC(=O)c2ccc3c(c2)nc(C(F)F)n3Cc2cccc3c2OC(F)(F)O3)cc1 [I-17, (R)-1-((2,2-difluorobenzo[d][1,3]dioxol-4-yl)methyl)-2-(difluoromethyl)-N-(1-(4-(ethylsulfonyl)phenyl)-2-hydroxyethyl)-1H-benzo[d]imidazole-5-carboxamide]
Ki [1]: < 100 nM
IC50 [2]: < 100 nM

CCS(=O)(=O)c1ccc([C@H](CO)NC(=O)c2ccc3c(c2)nc(C2(F)CC2)n3Cc2cccc3c2OC(F)(F)O3)cc1 [I-18, (R)-1-((2,2-difluorobenzo[d][1,3]dioxol-4-yl)methyl)-N-(1-(4-(ethylsulfonyl)phenyl)-2-hydroxyethyl)-2-(1-fluorocyclopropyl)-1H-benzo[d]imidazole-5-carboxamide]
Ki [1]: < 100 nM
IC50 [2]: < 100 nM

CS(=O)(=O)c1ccc([C@H](CO)NC(=O)c2ccc3c(c2)nc(C(F)(F)F)n3Cc2cccc3c2OC(F)(F)O3)cc1 [I-20.1, (R)-1-((2,2-difluorobenzo[d][1,3]dioxol-4-yl)methyl)-N-(2-hydroxy-1-(4-(methylsulfonyl)phenyl)ethyl)-2-(trifluoromethyl)-1H-benzo[d]imidazole-5-carboxamide]
Ki [1]: < 100 nM
IC50 [2]: < 100 nM

CS(=O)(=O)c1ccc([C@@H](CO)NC(=O)c2ccc3c(c2)nc(C(F)(F)F)n3Cc2cccc3c2OC(F)(F)O3)cc1 [I-20.2, (S)-1-((2,2-difluorobenzo[d][1,3]dioxol-4-yl)methyl)-N-(2-hydroxy-1-(4-(methylsulfonyl)phenyl)ethyl)-2-(trifluoromethyl)-1H-benzo[d]imidazole-5-carboxamide]
Ki [1]: < 100 nM
IC50 [2]: < 100 nM

CS(=O)(=O)c1ccc([C@H](CO)NC(=O)c2ccc3c(c2)nc(C2CC2)n3Cc2cccc3c2OC(F)(F)O3)cc1 [I-21, (R)-2-cyclopropyl-1-((2,2-difluorobenzo[d][1,3]dioxol-4-yl)methyl)-N-(2-hydroxy-1-(4-(methylsulfonyl)phenyl)ethyl)-1H-benzo[d]imidazole-5-carboxamide]
Ki [1]: < 100 nM
IC50 [2]: < 100 nM

CS(=O)(=O)c1ccc([C@H](CO)NC(=O)c2ccc3c(c2)nc(C2CCC2)n3Cc2cccc3c2OC(F)(F)O3)cc1 [I-22, (R)-2-cyclobutyl-1-((2,2-difluorobenzo[d][1,3]dioxol-4-yl)methyl)-N-(2-hydroxy-1-(4-(methylsulfonyl)phenyl)ethyl)-1H-benzo[d]imidazole-5-carboxamide]
Ki [1]: < 100 nM
IC50 [2]: < 100 nM

CS(=O)(=O)c1ccc([C@H](CO)NC(=O)c2ccc3c(c2)nc(C(F)F)n3Cc2cccc3c2OC(F)(F)O3)cc1 [I-23.1, (R)-1-((2,2-difluorobenzo[d][1,3]dioxol-4-yl)methyl)-2-(difluoromethyl)-N-(2-hydroxy-1-(4-(methylsulfonyl)phenyl)ethyl)-1H-benzo[d]imidazole-5-carboxamide]
Ki [1]: < 100 nM
IC50 [2]: < 100 nM

CS(=O)(=O)c1ccc([C@@H](CO)NC(=O)c2ccc3c(c2)nc(C(F)F)n3Cc2cccc3c2OC(F)(F)O3)cc1 [I-23.2, (S)-1-((2,2-difluorobenzo[d][1,3]dioxol-4-yl)methyl)-2-(difluoromethyl)-N-(2-hydroxy-1-(4-(methylsulfonyl)phenyl)ethyl)-1H-benzo[d]imidazole-5-carboxamide]
Ki [1]: < 100 nM
IC50 [2]: 100 to 1000 nM

CS(=O)(=O)c1ccc([C@H](CO)NC(=O)c2ccc3c(c2)nc(C2(F)CC2)n3Cc2cccc3c2OC(F)(F)O3)cc1 [I-24, (R)-1-((2,2-difluorobenzo[d][1,3]dioxol-4-yl)methyl)-2-(1-fluorocyclopropyl)-N-(2-hydroxy-1-(4-(methylsulfonyl)phenyl)ethyl)-1H-benzo[d]imidazole-5-carboxamide]
Ki [1]: < 100 nM
IC50 [2]: < 100 nM

CCS(=O)(=O)c1ccc(CNC(=O)c2ccc3c(c2)nc(C(F)(F)F)n3Cc2cccc3c2OC(F)(F)O3)cc1 [I-25, 1-((2,2-difluorobenzo[d][1,3]dioxol-4-yl)methyl)-N-(4-(ethylsulfonyl)benzyl)-2-(trifluoromethyl)-1H-benzo[d]imidazole-5-carboxamide]
Ki [1]: < 100 nM
IC50 [2]: < 100 nM

CCS(=O)(=O)c1ccc(CNC(=O)c2ccc3c(c2)nc(C2CC2)n3Cc2cccc3c2OC(F)(F)O3)cc1 [I-26, 2-cyclopropyl-1-((2,2-difluorobenzo[d][1,3]dioxol-4-yl)methyl)-N-(4-(ethylsulfonyl)benzyl)-1H-benzo[d]imidazole-5-carboxamide]
Ki [1]: < 100 nM
IC50 [2]: < 100 nM

CCS(=O)(=O)c1ccc(CNC(=O)c2ccc3c(c2)nc(C2(F)CC2)n3Cc2cccc3c2OC(F)(F)O3)cc1 [I-27, 1-((2,2-difluorobenzo[d][1,3]dioxol-4-yl)methyl)-N-(4-(ethylsulfonyl)benzyl)-2-(1-fluorocyclopropyl)-1H-benzo[d]imidazole-5-carboxamide]
Ki [1]: < 100 nM
IC50 [2]: < 100 nM

CCS(=O)(=O)c1ccc(CNC(=O)c2ccc3c(c2)nc(COC)n3Cc2cccc3c2OC(F)(F)O3)cc1 [I-28, 1-((2,2-difluorobenzo[d][1,3]dioxol-4-yl)methyl)-N-(4-(ethylsulfonyl)benzyl)-2-(methoxymethyl)-1H-benzo[d]imidazole-5-carboxamide]
Ki [1]: < 100 nM
IC50 [2]: < 100 nM

CCc1nc2cc(C(=O)NCc3ccc(S(=O)(=O)CC)cc3)ccc2n1Cc1cccc2c1OC(F)(F)O2 [I-29, 1-((2,2-difluorobenzo[d][1,3]dioxol-4-yl)methyl)-2-ethyl-N-(4-(ethylsulfonyl)benzyl)-1H-benzo[d]imidazole-5-carboxamide]
Ki [1]: < 100 nM
IC50 [2]: < 100 nM

CCS(=O)(=O)c1ccc(CNC(=O)c2ccc3c(c2)nc(C(C)(C)C)n3Cc2cccc3c2OC(F)(F)O3)cc1 [I-30, 2-(tert-butyl)-1-((2,2-difluorobenzo[d][1,3]dioxol-4-yl)methyl)-N-(4-(ethylsulfonyl)benzyl)-1H-benzo[d]imidazole-5-carboxamide]
Ki [1]: < 100 nM
IC50 [2]: < 100 nM

CCS(=O)(=O)c1ccc(CNC(=O)c2ccc3c(c2)nc(C(C)C)n3Cc2cccc3c2OC(F)(F)O3)cc1 [I-31, 1-((2,2-difluorobenzo[d][1,3]dioxol-4-yl)methyl)-N-(4-(ethylsulfonyl)benzyl)-2-isopropyl-1H-benzo[d]imidazole-5-carboxamide]
Ki [1]: < 100 nM
IC50 [2]: < 100 nM

CCS(=O)(=O)c1ccc(CNC(=O)c2ccc3c(c2)nc(C)n3Cc2cccc3c2OC(F)(F)O3)cc1 [I-32, 1-((2,2-difluorobenzo[d][1,3]dioxol-4-yl)methyl)-N-(4-(ethylsulfonyl)benzyl)-2-methyl-1H-benzo[d]imidazole-5-carboxamide]
Ki [1]: < 100 nM
IC50 [2]: > 1000 nM

CCS(=O)(=O)c1ccc(CNC(=O)c2ccc3c(c2)nc(CC(C)C)n3Cc2cccc3c2OC(F)(F)O3)cc1 [I-33, 1-((2,2-difluorobenzo[d][1,3]dioxol-4-yl)methyl)-N-(4-(ethylsulfonyl)benzyl)-2-isobutyl-1H-benzo[d]imidazole-5-carboxamide]
Ki [1]: < 100 nM
IC50 [2]: < 100 nM

CS(=O)(=O)c1ccc(CNC(=O)c2ccc3c(c2)nc(C2CC2)n3Cc2cccc3c2OC(F)(F)O3)cc1 [I-34, 2-cyclopropyl-1-((2,2-difluorobenzo[d][1,3]dioxol-4-yl)methyl)-N-(4-(methylsulfonyl)benzyl)-1H-benzo[d]imidazole-5-carboxamide]
Ki [1]: < 100 nM
IC50 [2]: < 100 nM

CNS(=O)(=O)c1ccc(CNC(=O)c2ccc3c(c2)nc(C2CC2)n3Cc2cccc3c2OC(F)(F)O3)cc1 [I-35, 2-cyclopropyl-1-((2,2-difluorobenzo[d][1,3]dioxol-4-yl)methyl)-N-(4-(N-methylsulfamoyl)benzyl)-1H-benzo[d]imidazole-5-carboxamide]
Ki [1]: < 100 nM
IC50 [2]: < 100 nM
